Test results reported in ChEMBL document CHEMBL4382280, “Inhibitors of G12C Mutant Ras Proteins for the Treatment of Cancers” (ACS Med Chem Lett, 2019).

Target: GTPase KRas (Homo sapiens, UniProt P01116, G12C)
Test: Inhibition of GDP loaded biotin-labeled KRAS G12C mutant (unknown origin) assessed as reduction in guanine nucleotide exchange preincubated for 4 hrs followed by GST-RAF-RBD addition in presence of GTPgammaS by FRET assay

Chain of GTPase KRas (P01116 whole entry G12C): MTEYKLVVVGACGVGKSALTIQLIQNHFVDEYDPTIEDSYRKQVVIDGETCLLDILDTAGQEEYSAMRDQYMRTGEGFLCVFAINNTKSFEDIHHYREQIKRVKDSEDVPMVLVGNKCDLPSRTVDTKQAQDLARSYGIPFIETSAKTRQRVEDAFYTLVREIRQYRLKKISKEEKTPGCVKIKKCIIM

| Compound | IC50 [nM] |
| --- | --- |
| C=CC(=O)N1CCN2c3ncnc4cc(-c5c(C)ccc6[nH]ncc56)c(Cl)c(c34)OC[C@@H]2C1 (stereo in doubt; form 1) | 123 |
| C=CC(=O)N1CCN2c3ncnc4cc(-c5c(C)ccc6[nH]ncc56)c(Cl)c(c34)OC[C@@H]2C1 (stereo in doubt; form 3) | 12 |
